According to patent US11000033B2, “Ketone or oxime compound, and herbicide” (NISSAN CHEMICAL CORPORATION, priority 2014, dated 2021):

How the values were obtained:
Type in all cases: in vivo
soybean = test: Test Example 5: effect on crop by foliage application, plastic box (symbol d); settings: 320 g/ha, 3 weeks after application
Outline: (§1)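 Greenhouse test at 25° C. to 30° C. Seeds of crops and weeds were spot-sown in boxes of sterilized diluvial soil under roughly 1.5 cm soil cover, then grown for foliage treatment.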

Veronica persica = test: Test Example 5: herbicidal effect by foliage application, plastic box (symbol R); settings: 320 g/ha, 3 weeks after application
Outline: (§2)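 Leaf-applied emulsion, water-diluted to a preset herbicide dose, on two-week-old seedlings raised in a 25° C. to 30° C. greenhouse; injury rated at 3 weeks using earlier criteria.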

rapeseed = test: Test Example 5: effect on crop by foliage application, plastic box (symbol g); settings: 320 g/ha, 3 weeks after application
Outline: as §1

Avena fatua = test: Test Example 5: herbicidal effect by foliage application, plastic box (symbol I); settings: 320 g/ha, 3 weeks after application
Outline: as §2

Galium spurium = test: Test Example 4: herbicidal effect by soil treatment (symbol Q)
Outline: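 Seeds were sown in sterilized diluvial soil, covered with about 1.5 cm of soil, and the soil surface was sprayed with a water-diluted emulsion of the compound at a predetermined rate. Plants grew in a greenhouse at 25° C. to 30° C.; effects were scored visually 3 weeks after application.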

[1] = system: Echinochloa crus-galli var. crus-galli; test: Test Example 3: herbicidal effect by foliage application, Wagner pot (symbol H); settings: application herbicide amount 320 g/ha
Outline: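 Foliar spray of a water-diluted emulsion at a predetermined herbicide amount, applied to 14-day-old plants. Seedlings were raised in flooded alluvial soil (0.1–0.5 cm water) at 25–30 °C in a greenhouse. Injury was rated after 3 weeks against fixed criteria.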

Scirpus juncoides = test: Test Example 2: herbicidal activity, application during weed generation in submerged conditions (symbol B); settings: Table 23; application herbicide amount 320 g/ha; grade 0-5 by criteria of Test Example 1
Outline: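 Scoring of herbicidal effect took place 3 weeks after treatment, using the criteria of the earlier test. Treatment was water-surface application of diluted emulsifiable compound at a set dose. Plants were at one- to two-leaf stage in submerged alluvial soil (4 cm depth), greenhouse 25-30° C.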

Monochoria vaginalis = test: Test Example 1: herbicidal activity, application before weed generation in submerged conditions (symbol C); settings: application herbicide amount 320 g/ha
Outline: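 Greenhouse growth at 25–30 °C lasted 3 weeks after treatment, when each weed was graded 0–5 by herbicidal ratio. Treatment was a diluted emulsion applied to the water surface of 4 cm-submerged alluvial soil on the sowing day.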

[2] = system: directly sowed rice plant; test: Test Example 3: effect on crop by foliage application, Wagner pot (symbol b); settings: application herbicide amount 320 g/ha
Outline: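 Plants are raised from seed in flooded paddy conditions: water stands 0.1–0.5 cm over alluvial soil, and the pot is kept in a greenhouse at 25–30 °C. Species sown are barnyardgrass (E. crus-galli var. crus-galli), Leptochloa chinensis, Cyperus difformis and rice.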

beet = test: Test Example 4: effect on crop by soil treatment (symbol f); settings: for f: beet, effect grade on crop: 320 g/ha; for f: beet, effect on crop grade: application herbicide amount 320 g/ha
Outline: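 Crop seed is sown in spots together with several weed species in a box of sterilized diluvial soil. It is covered by about 1.5 cm of soil and kept in a greenhouse held between 25° C. and 30° C.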

[3] = application herbicide amount 320 g/ha

Row | SMILES | d: soybean, effect on crop grade (soybean) | R: Veronica persica, herbicidal effect grade (Veronica persica) | g: rapeseed, effect on crop grade (rapeseed) | I: Avena fatua, herbicidal effect grade (Avena fatua) | Q: Galium spurium, herbicidal effect grade (Galium spurium; 320 g/ha) | herbicidal effect on H (Echinochloa crus-galli var. crus-galli), grade 0-5 [1] | Herbicidal effect grade, B: Scirpus juncoides (Scirpus juncoides) | Herbicidal effect grade, C: Monochoria vaginalis (Monochoria vaginalis) | effect on crop b (directly sowed rice plant), grade 0-5 [2] | f: beet, effect grade on crop (beet) | Q: Galium spurium, herbicidal effect grade (Galium spurium; [3]) | f: beet, effect on crop grade (beet) | d: soybean, effect on crop (criteria 0-5) (soybean) | R: Veronica persica, herbicidal effect (criteria 0-5) (Veronica persica) | g: rapeseed, effect on crop (criteria 0-5) (rapeseed) | I: Avena fatua, herbicidal effect (criteria 0-5) (Avena fatua)
1 | CC(=O)C(C(C)=O)C1CC(O)=C(c2c(C)cc(C)cc2C)C1=O (stereo not shown) [2-002] | 0 (Herbicidal ratio of 5% or lower (almost no effect)) | 1 (Herbicidal ratio of 5% or higher and lower than 20%) | 3 (Herbicidal ratio of 40% or higher and lower than 70%) | 1 (Herbicidal ratio of 5% or higher and lower than 20%) | 0 (Herbicidal ratio of 5% or lower (almost no effect)) | 0 (Herbicidal ratio of 5% or lower (almost no effect)) | 0 (Herbicidal ratio of 5% or lower (almost no effect)) | 0 (Herbicidal ratio of 5% or lower (almost no effect)) | 0 (Herbicidal ratio of 5% or lower (almost no effect)) | 0 (Herbicidal ratio of 5% or lower (almost no effect)) | – | – | – | – | – | –
2 | CON=C(C)CC1CC(O)=C(c2c(C)cc(-c3ccc(Cl)nc3)cc2C)C1=O (mixture of isomers) [6-035] | 2 (Herbicidal ratio of 20% or higher and lower than 40%) | 4 (Herbicidal ratio of 70% or higher and lower than 90%) | 4 (Herbicidal ratio of 70% or higher and lower than 90%) | 5 (Herbicidal ratio of 90% or more (almost completely withered)) | – | 5 (Herbicidal ratio of 90% or more (almost completely withered)) | 4 (Herbicidal ratio of 70% or higher and lower than 90%) | 1 (Herbicidal ratio of 5% or higher and lower than 20%) | 5 (Herbicidal ratio of 90% or more (almost completely withered)) | – | 0 (Herbicidal ratio of 5% or lower (almost no effect)) | 0 (Herbicidal ratio of 5% or lower (almost no effect)) | – | – | – | –
3 | CCOC(=O)C(C(=O)C(C)C)C1CC(O)=C(c2c(C)cc(C)cc2C)C1=O (stereo not shown) [2-009] | 0 (Herbicidal ratio of 5% or lower (almost no effect)) | 0 (Herbicidal ratio of 5% or lower (almost no effect)) | 0 (Herbicidal ratio of 5% or lower (almost no effect)) | 0 (Herbicidal ratio of 5% or lower (almost no effect)) | – | 3 (Herbicidal ratio of 40% or higher and lower than 70%) | 0 (Herbicidal ratio of 5% or lower (almost no effect)) | 0 (Herbicidal ratio of 5% or lower (almost no effect)) | 1 (Herbicidal ratio of 5% or higher and lower than 20%) | – | 0 (Herbicidal ratio of 5% or lower (almost no effect)) | 0 (Herbicidal ratio of 5% or lower (almost no effect)) | – | – | – | –
4 | CON=C(C)CC1CC(OC(=O)C(C)(C)c2ccc(Cl)cc2)=C(c2c(C)cc(C)cc2C)C1=O (stereo not shown) [1-148] | – | – | – | – | 0 (Herbicidal ratio of 5% or lower (almost no effect)) | 5 (Herbicidal ratio of 90% or more (almost completely withered)) | 4 (Herbicidal ratio of 70% or higher and lower than 90%) | 3 (Herbicidal ratio of 40% or higher and lower than 70%) | 5 (Herbicidal ratio of 90% or more (almost completely withered)) | 0 (Herbicidal ratio of 5% or lower (almost no effect)) | – | – | 3 (Herbicidal ratio of 40% or higher and lower than 70%) | 3 (Herbicidal ratio of 40% or higher and lower than 70%) | 5 (Herbicidal ratio of 90% or more (almost completely withered)) | 5 (Herbicidal ratio of 90% or more (almost completely withered))
5 | CCC(=O)CC1CC(O)=C(c2c(C)cc(C)cc2C)C1=O (stereo not shown) [2-006] | 0 (Herbicidal ratio of 5% or lower (almost no effect)) | 0 (Herbicidal ratio of 5% or lower (almost no effect)) | 0 (Herbicidal ratio of 5% or lower (almost no effect)) | 3 (Herbicidal ratio of 40% or higher and lower than 70%) | – | 5 (Herbicidal ratio of 90% or more (almost completely withered)) | 2 (Herbicidal ratio of 20% or higher and lower than 40%) | 3 (Herbicidal ratio of 40% or higher and lower than 70%) | 5 (Herbicidal ratio of 90% or more (almost completely withered)) | – | 0 (Herbicidal ratio of 5% or lower (almost no effect)) | 0 (Herbicidal ratio of 5% or lower (almost no effect)) | – | – | – | –
6 | CCC(C)C(=O)CC1CC(O)=C(c2c(C)cc(C)cc2C)C1=O (stereo not shown) [2-024] | 0 (Herbicidal ratio of 5% or lower (almost no effect)) | 2 (Herbicidal ratio of 20% or higher and lower than 40%) | 3 (Herbicidal ratio of 40% or higher and lower than 70%) | 2 (Herbicidal ratio of 20% or higher and lower than 40%) | – | 5 (Herbicidal ratio of 90% or more (almost completely withered)) | 0 (Herbicidal ratio of 5% or lower (almost no effect)) | 0 (Herbicidal ratio of 5% or lower (almost no effect)) | 5 (Herbicidal ratio of 90% or more (almost completely withered)) | – | 0 (Herbicidal ratio of 5% or lower (almost no effect)) | 0 (Herbicidal ratio of 5% or lower (almost no effect)) | – | – | – | –
7 | CON=C(C)CC1CC(OC(=O)N2CCCC2)=C(c2c(C)cc(C)cc2C)C1=O (stereo not shown) [1-150] | – | – | – | – | 0 (Herbicidal ratio of 5% or lower (almost no effect)) | 5 (Herbicidal ratio of 90% or more (almost completely withered)) | 3 (Herbicidal ratio of 40% or higher and lower than 70%) | 0 (Herbicidal ratio of 5% or lower (almost no effect)) | 5 (Herbicidal ratio of 90% or more (almost completely withered)) | 0 (Herbicidal ratio of 5% or lower (almost no effect)) | – | – | 0 (Herbicidal ratio of 5% or lower (almost no effect)) | 0 (Herbicidal ratio of 5% or lower (almost no effect)) | 4 (Herbicidal ratio of 70% or higher and lower than 90%) | 5 (Herbicidal ratio of 90% or more (almost completely withered))
